# Measured values as given in patent US9826766B2 (priority 2012, dated 2017).
# Key:
# Conditions in all cases: mouse, in vivo
# [1] = tested on: enterotoxinogenic strain of Clostridium perfringens
# [2] = tested on: enterotoxinogenic strain of Clostridium perfringens; set-up: species or system axenic C3H/He mice
# [3] = tested on: enterotoxinogenic strain of Clostridium perfringens; set-up: species or system axenic C3H/He mice; remark: listed apart in the source
compound,measurement,setting,value
OC[C@H]1O[C@@H](O[C@H]2[C@H](O)[C@@H](O)C(O)O[C@@H]2CO)[C@H](O)[C@@H](O)[C@H]1O (some centres unmarked) [Lactose],mice died,[1],100%
same,"Clostridium perfringens count, Blood",[2],2.3 log CFU/g
same,"Clostridium perfringens count, Cecum",[2],5.5 ± 0.8 log CFU/g
same,"Clostridium perfringens count, Colon",[2],6.6 ± 0.1 log CFU/g
same,"Clostridium perfringens count, Ileum",[2],3.4 ± 0.8 log CFU/g
same,"Clostridium perfringens count, Kidney",[2],3.0 log CFU/g
same,"Clostridium perfringens count, Liver",[2],4.4 log CFU/g
same,"Clostridium perfringens count, Spleen",[2],4.2 log CFU/g
same,"bacterial translocation, in words",[2],promotes bacterial translocation
same,"colonization of the intestine vs control mice, in words",[2],weak colonization of the intestine
same,Count (log CFU/g of feces) of Clostridium perfringens,[3],Mice dead or dying
